ChEMBL document CHEMBL1201862, “PubChem BioAssay data set” (2004)
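Results reflect a 48-hour exposure of cells in 96-well plates to compound at five concentrations. Abbreviation: GI50, concentration required for 50% inhibition of growth.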 Active and inactive are the calls of the source. Rule as the data show it: active = GI50 up to about 1.1 µM and inactive = higher.

How the values were obtained:
Assay in all cases: NCI-60 cell line screen, 48 h
786-0 = system: 786-0
HCT-116 = system: HCT-116
HOP-62 = system: HOP-62
HOP-92 = system: HOP-92
K562 = system: K562
M14 = system: M14
NCI/ADR-RES = system: NCI/ADR-RES
OVCAR-3 = system: OVCAR-3
OVCAR-5 = system: OVCAR-5
RXF 393 = system: RXF 393
SF-268 = system: SF-268
SF-295 = system: SF-295
SK-OV-3 = system: SK-OV-3
SNB-19 = system: SNB-19
T47D = system: T47D
U-251 = system: U-251

Measured: GI50

Cc1nc(N)nc(S)c1CCCNc1ccccc1
inactive: 786-0 > 100 µM | HCT-116 79.6 µM | HOP-62 > 100 µM | HOP-92 > 100 µM | K562 2.36 µM | M14 52.4 µM | NCI/ADR-RES > 100 µM | OVCAR-3 > 100 µM | OVCAR-5 > 100 µM | RXF 393 > 100 µM | SF-268 62.5 µM | SF-295 56.4 µM | SK-OV-3 > 100 µM | SNB-19 89.7 µM | T47D 20.4 µM | U-251 68.9 µM

C=C1C(=O)OC2CC(C)C(/C=C/C(C)=O)=CCC12 (stereo not given)
inactive: 786-0 26.4 µM | HCT-116 43.3 µM | HOP-62 > 100 µM | HOP-92 > 100 µM | K562 58.7 µM | M14 > 100 µM | NCI/ADR-RES > 100 µM | OVCAR-3 > 100 µM | OVCAR-5 > 100 µM | RXF 393 > 100 µM | SF-268 > 100 µM | SF-295 > 100 µM | SK-OV-3 > 100 µM | SNB-19 > 100 µM | T47D > 100 µM | U-251 > 100 µM

OC(CCN1CCN(CCOC(c2ccc(F)cc2)c2ccc(F)cc2)CC1)c1ccccc1 (stereo not given)
inactive: 786-0 12.9 µM | HCT-116 13.4 µM | HOP-62 18 µM | HOP-92 10.3 µM | K562 4.56 µM | M14 14.7 µM | NCI/ADR-RES 13.3 µM | OVCAR-3 15.3 µM | OVCAR-5 14.5 µM | RXF 393 11.1 µM | SF-268 16.9 µM | SF-295 18.3 µM | SK-OV-3 16.3 µM | SNB-19 16.9 µM | T47D 12.3 µM | U-251 14.6 µM

COc1cc(CSc2ccc(O)cc2)cc(OC)c1OC
inactive: 786-0 55.3 µM | HCT-116 53 µM | HOP-62 49.7 µM | HOP-92 19.3 µM | K562 38 µM | M14 36.4 µM | NCI/ADR-RES 24.7 µM | OVCAR-3 41.6 µM | OVCAR-5 52.1 µM | RXF 393 > 100 µM | SF-268 53.3 µM | SF-295 24.9 µM | SK-OV-3 62.2 µM | SNB-19 34.6 µM | T47D 22.6 µM | U-251 29.2 µM

COc1ccc2[nH]c(Cl)c(/C=C3/C(=O)N(c4ccccc4)c4ccccc43)c2c1
inactive: 786-0 6.37 µM | HCT-116 5.07 µM | HOP-62 6.81 µM | HOP-92 13.7 µM | K562 3.18 µM | M14 3.66 µM | NCI/ADR-RES 2.1 µM | OVCAR-3 3.37 µM | OVCAR-5 13.6 µM | RXF 393 15.9 µM | SF-268 5.08 µM | SF-295 2.48 µM | SK-OV-3 3.5 µM | SNB-19 9.46 µM | T47D 3.76 µM | U-251 3.98 µM
